# Experimental data taken from PubChem BioAssay AID2060488 (Molecular Pharmacology Branch, DTP, NCI, 2025).
# System: 966289-007-R4-J1-PDC complex spheroid viability
# Experiment: Anticancer human tumor 966289-007-R4-J1-PDC patient-derived pancreatic adenocarcinoma cell line growth inhibition [GQUAD]
# Conditions: for IC50: curve of first compound; for viability, T/C: stronger effect = lower value
# From the text: DNA G-quadruplex Stabilizer Agents in Combinations in Complex Spheroids
# A high-throughput screen of multi-cell type tumor spheroids was designed to identify active combinations of DNA G-quadruplex stabilizer agents and targeted small molecules. Complex spheroids include a stromal component modeled by human endothelial cells (HUVEC) and fibroblasts modeled by human mesenchymal stem cells (MSCs). The concentration ranges selected for each drug and investigational agent were based upon clinically achievable concentrations if the clinical Cmax of the agent was known.
# Compounds. The drugs and investigational agents: pidnarulex (CX-5461; NSC782164), APTO-253 (NSC789042), BRACO-19 (NSC847499), peposertib (NSC802822), ceralasertib (NSC780249), elimusertib (NSC800525), camonsertib (NSC841442), AZD-1390 (NSC803789), olaparib (NSC753686), talazoparib (NSC767125), ART-558 (NSC835418), sotorasib (NSC818433), MRTX-1133 (NSC836407), SN-38 (NSC673596), topotecan (NSC609699), etoposide (NSC141540), doxorubicin (NSC123127), gemcitabine (NSC613327), 5-fluorouracil (NSC19893), paclitaxel (NSC125973), vemurafenib (NSC761431), panobinostat (NSC761190), R-306465 (JNJ-16241199; NSC773264), adavosertib (NSC754352), TP-3654 (NSC805149), carboplatin (NSC241240), KSQ-4279 (NSC840948), and staurosporine (NSC755774) were obtained from the National Cancer Institute (NCI) Developmental Therapeutics Program Chemical Repository (34). The FDA-approved anticancer drug set is available from the NCI Developmental Therapeutics Program. […] The stock solutions were prepared in dimethyl sulfoxide (DMSO, Sigma-Aldrich, St. Louis, MO, cat. D2650) at 800-fold the tested concentration and stored at -70 degrees C prior to their use. All drugs and investigational agents were tested over a range starting from a high concentration at or near the clinical Cmax and decreasing in half-log increments. If the clinical Cmax for an agent had not been determined, the highest concentration tested was 10 microM.
# 2.3 Cell Culture. All cells were maintained in an incubator at 37 degrees C and 5% CO2 with 95% humidity. The PDC lines were cultured according to standard operating procedures established by the NCI PDMR. All PDCs were thawed and cultured in Matrigel-coated flasks prepared with a working solution of 1X Ham's F-12 nutrient mix, without supplementation (Invitrogen, cat. 11765054), 100 U/mL penicillin-streptomycin (Invitrogen, cat. 15140122), and 2.5% Matrigel (Corning Inc., cat. 354248) for the first three passages. The 857933-349-R-J2-PDC line was cultured in 6C/Colon 1B media, which includes advanced DMEM/F-12 (Thermo Fisher Scientific, cat. 12634028), 10 mM HEPES (Thermo Fisher Scientific, cat. 15630080), 1X GlutaMAX supplement (Thermo Fisher Scientific, cat. 35050061), 0.1 mg/mL primocin (InvivoGen, cat. ant-pm-2), 10% defined fetal bovine serum, heat inactivated (HyClone Laboratories Inc., cat. SH30070.03HI), 50% L-WRN conditioned media (ATCC, cat. CRL-3276), 1.25 mM N-Acetyl-L-cysteine (Sigma-Aldrich, cat. A9165), 10 mM nicotinamide (Sigma-Aldrich, cat. N0636), 1X B-27 supplement (Thermo Fisher Scientific, cat. 17504044), 1X N-2 supplement (Thermo Fisher Scientific, cat. 17502048), 10 microM Y-27632 dihydrochloride (Tocris Bioscience, cat. 1254), and 50 ng/mL human EGF recombinant protein (Thermo Fisher Scientific, cat. PHG0311). The 485176-168-R4-J1-PDC line was cultured in Panc media, which includes all 6C/Colon 1B media components plus 100 ng/mL human FGF-10 (Thermo Fisher Scientific, cat. 100-26), 500 nM SB-431542 (Selleckchem, cat. S1067), and gastrin (Tocris, cat. 3006).
# […]
# [1] = second compound 0.0316 µM, first compound 0.0316 µM
# [2] = second compound 0.0316 µM, first compound 0.1 µM
# [3] = second compound 0.0316 µM, first compound 0.316 µM
# [4] = second compound 0.0316 µM, first compound 1 µM
# [5] = second compound 0.0316 µM, first compound 3.16 µM
# [6] = second compound 0.0316 µM, first compound 10 µM
# [7] = second compound 0.1 µM, first compound 0.0316 µM
# [8] = second compound 0.1 µM, first compound 0.1 µM
# [9] = second compound 0.1 µM, first compound 0.316 µM
# [10] = second compound 0.1 µM, first compound 1 µM
# [11] = second compound 0.1 µM, first compound 3.16 µM
# [12] = second compound 0.1 µM, first compound 10 µM
# [13] = second compound 0.316 µM, first compound 0.0316 µM
# [14] = second compound 0.316 µM, first compound 0.1 µM
# [15] = second compound 0.316 µM, first compound 0.316 µM
# [16] = second compound 0.316 µM, first compound 1 µM
# [17] = second compound 0.316 µM, first compound 3.16 µM
# [18] = second compound 0.316 µM, first compound 10 µM
# [19] = second compound 1 µM, first compound 0.0316 µM
# [20] = second compound 1 µM, first compound 0.1 µM
# [21] = second compound 1 µM, first compound 0.316 µM
# [22] = second compound 1 µM, first compound 1 µM
# [23] = second compound 1 µM, first compound 3.16 µM
# [24] = second compound 1 µM, first compound 10 µM
# [25] = second compound 3.16 µM, first compound 0.0316 µM
# [26] = second compound 3.16 µM, first compound 0.1 µM
# [27] = second compound 3.16 µM, first compound 0.316 µM
# [28] = second compound 3.16 µM, first compound 1 µM
# [29] = second compound 3.16 µM, first compound 3.16 µM
# [30] = second compound 3.16 µM, first compound 10 µM
# [31] = second compound 10 µM, first compound 0.0316 µM
# [32] = second compound 10 µM, first compound 0.1 µM
# [33] = second compound 10 µM, first compound 0.316 µM
# [34] = second compound 10 µM, first compound 1 µM
# [35] = second compound 10 µM, first compound 3.16 µM
# [36] = second compound 10 µM, first compound 10 µM
# 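Also: spheroids exposed to the agents for seven days before readout.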
# 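For viability, T/C in this document: percent viability relative to DMSO vehicle control wells taken as 100%.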
smiles,measurement,setting,value
COc1cccc2c1C(=O)c1c(O)c3c(c(O)c1C2=O)CC(O)(C(=O)CO)CC3OC1CC(N)C(O)C(C)O1 (centres undefined) + Cc1cnc(CNC(=O)c2c(=O)c3ccc(N4CCCN(C)CC4)nc3n3c2sc2ccccc23)cn1,IC50,second compound 0.0316 µM,< 31.6 nM
same,IC50,second compound 0.1 µM,< 31.6 nM
same,IC50,second compound 0.316 µM,< 31.6 nM
same,IC50,second compound 1 µM,< 31.6 nM
same,IC50,second compound 3.16 µM,< 31.6 nM
same,IC50,second compound 10 µM,< 31.6 nM
same,"viability, T/C",[1],43.6%
same,"viability, T/C",[2],6.62%
same,"viability, T/C",[3],2.17%
same,"viability, T/C",[4],0.54%
same,"viability, T/C",[5],0.2%
same,"viability, T/C",[6],0.39%
same,"viability, T/C",[7],14.1%
same,"viability, T/C",[8],7.19%
same,"viability, T/C",[9],2.36%
same,"viability, T/C",[10],0.41%
same,"viability, T/C",[11],0.24%
same,"viability, T/C",[12],0.54%
same,"viability, T/C",[13],8.14%
same,"viability, T/C",[14],4.76%
same,"viability, T/C",[15],1.77%
same,"viability, T/C",[16],0.41%
same,"viability, T/C",[17],0.17%
same,"viability, T/C",[18],0.26%
same,"viability, T/C",[19],4.98%
same,"viability, T/C",[20],3.35%
same,"viability, T/C",[21],1.44%
same,"viability, T/C",[22],0.09%
same,"viability, T/C",[23],0.13%
same,"viability, T/C",[24],0.32%
same,"viability, T/C",[25],3.68%
same,"viability, T/C",[26],1.92%
same,"viability, T/C",[27],0.11%
same,"viability, T/C",[28],0.05%
same,"viability, T/C",[29],0.1%
same,"viability, T/C",[30],0.1%
same,"viability, T/C",[31],0.03%
same,"viability, T/C",[32],0.08%
same,"viability, T/C",[33],0.1%
same,"viability, T/C",[34],0.07%
same,"viability, T/C",[35],0.16%
same,"viability, T/C",[36],0.24%
O=C(c1cc(Cc2n[nH]c(=O)c3ccccc23)ccc1F)N1CCN(C(=O)C2CC2)CC1 + Cc1cnc(CNC(=O)c2c(=O)c3ccc(N4CCCN(C)CC4)nc3n3c2sc2ccccc23)cn1,IC50,second compound 0.0316 µM,1380 nM
same,IC50,second compound 0.1 µM,< 31.6 nM
same,IC50,second compound 0.316 µM,< 31.6 nM
same,IC50,second compound 1 µM,< 31.6 nM
same,IC50,second compound 3.16 µM,< 31.6 nM
same,IC50,second compound 10 µM,< 31.6 nM
same,"viability, T/C",[1],113%
same,"viability, T/C",[2],106%
same,"viability, T/C",[3],98.9%
same,"viability, T/C",[4],58.9%
same,"viability, T/C",[5],23.3%
same,"viability, T/C",[6],4.08%
same,"viability, T/C",[7],33.8%
same,"viability, T/C",[8],26%
same,"viability, T/C",[9],22%
same,"viability, T/C",[10],17.1%
same,"viability, T/C",[11],8.17%
same,"viability, T/C",[12],4.33%
same,"viability, T/C",[13],13.5%
same,"viability, T/C",[14],11%
same,"viability, T/C",[15],9.09%
same,"viability, T/C",[16],7.84%
same,"viability, T/C",[17],3.87%
same,"viability, T/C",[18],2.13%
same,"viability, T/C",[19],5.15%
same,"viability, T/C",[20],5.03%
same,"viability, T/C",[21],4.87%
same,"viability, T/C",[22],4.62%
same,"viability, T/C",[23],3%
same,"viability, T/C",[24],1.77%
same,"viability, T/C",[25],3.25%
same,"viability, T/C",[26],5.08%
same,"viability, T/C",[27],3.5%
same,"viability, T/C",[28],2.42%
same,"viability, T/C",[29],0.47%
same,"viability, T/C",[30],0.13%
same,"viability, T/C",[31],0.11%
same,"viability, T/C",[32],0.34%
same,"viability, T/C",[33],0.18%
same,"viability, T/C",[34],0.14%
same,"viability, T/C",[35],0.16%
same,"viability, T/C",[36],0.58%
